{
  "source": "patent US20230285409A1",
  "about": "“METHODS OF USING RHO KINASE INHIBITORS TO TREAT VASCULAR DEMENTIA” (Woolsey Pharmaceuticals, Inc., priority 2020, published 2023)",
  "origin": "cited, not measured here",
  "key": {"[1]": {"target": "p38 mitogen-activated protein kinase (Homo sapiens, UniProt Q16539)", "sequence (Q16539 whole entry)": "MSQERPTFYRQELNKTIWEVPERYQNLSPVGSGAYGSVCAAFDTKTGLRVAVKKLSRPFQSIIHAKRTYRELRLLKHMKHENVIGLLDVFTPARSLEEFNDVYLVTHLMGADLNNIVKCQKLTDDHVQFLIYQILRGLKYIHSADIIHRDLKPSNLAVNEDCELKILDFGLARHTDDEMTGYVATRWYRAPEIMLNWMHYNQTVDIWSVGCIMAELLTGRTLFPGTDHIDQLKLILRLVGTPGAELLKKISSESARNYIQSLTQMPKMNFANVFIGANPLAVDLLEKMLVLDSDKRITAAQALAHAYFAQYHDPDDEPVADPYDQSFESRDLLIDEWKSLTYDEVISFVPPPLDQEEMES", "details": "cited from earlier work"}, "[2]": {"details": "in vivo, 1-hydroxy metabolite; cited from earlier work"}, "VaD patients": {"tested_on": "VaD patients", "details": "cited from earlier work"}, "[3]": {"tested_on": "patients with wandering due to VaD", "details": "cited from earlier work"}, "[4]": {"tested_on": "triple transgenic mouse model (APP Swedish, MAPT P301L, and PSEN1 M146V)", "details": "10 mg/kg/day intraperitoneally; cited from earlier work"}, "APP/PS1 transgenic mice": {"tested_on": "APP/PS1 transgenic mice", "details": "5 and 10 mg/kg/day intraperitoneally; cited from earlier work"}, "streptozotocin rats": {"tested_on": "streptozotocin rats", "details": "5 and 10 mg/kg/day intraperitoneally; cited from earlier work"}, "triple transgenic mice": {"tested_on": "triple transgenic mice", "details": "30 mg/kg and 100 mg/kg in water, 10 or 12 months of age; cited from earlier work"}},
  "note": "Structures can show the parent of a compound that is named as a salt.",
  "data": [
    {"smiles": "O=c1ncn2nc(Sc3ccc(F)cc3F)ccc2c1-c1c(Cl)cccc1Cl", "note": "[Neflamapimod]", "values": [
      {"measurement": "primary endpoint of improving episodic memory", "setting": "[1]; Phase 2", "result": "failed its primary endpoint"},
      {"measurement": "tau in the cerebrospinal fluid", "setting": "[1]; Phase 2", "result": "reducing tau"},
      {"measurement": "Aβ deposition", "setting": "[1]; in humans", "result": "no effect on Aβ deposition"}
    ]},
    {"smiles": "O=S(=O)(c1cccc2c(O)nccc12)N1CCCNCC1", "note": "[M3]", "values": [
      {"measurement": "half-life", "setting": "[2]", "result": "about 8 hours"}
    ]},
    {"smiles": "O=S(=O)(c1cccc2cnccc12)N1CCCNCC1", "note": "[fasudil, Hexahydro-1-(5-Isoquinolinesulfonyl)-1H-1,4-Diazepine Monohydrochloride Hemihydrate]", "values": [
      {"measurement": "MMSE differential versus control", "setting": "VaD patients; 30 mg iv daily, control intravenous ligustrazine", "result": 7, "unit": "point"},
      {"measurement": "improvement in MMSE over baseline", "setting": "VaD patients; 30 mg iv infusion daily, 2 weeks, 2 days off, 2 more weeks, mean or median unclear", "result": 9, "unit": "point"},
      {"measurement": "ADL score after treatment", "setting": "VaD patients; after treatment, baseline 54, >26 functionally impaired", "result": 36},
      {"measurement": "MMSE score after treatment", "setting": "VaD patients; after treatment, baseline mean about 17", "result": "~27"},
      {"measurement": "cognitive improvements (MMSE)", "setting": "[3]; 30 mg and 60 mg per day, case studies", "result": "about 3 points"},
      {"measurement": "dose response", "setting": "[3]; 30 mg and 60 mg per day", "result": "no dose response"},
      {"measurement": "spatial orientation", "setting": "[3]; case studies", "result": "no improvement in spatial orientation"},
      {"measurement": "wandering symptoms", "setting": "[3]; patient with Binswanger-type cerebral infarction, within weeks of beginning treatment", "result": "wandering symptoms disappeared"},
      {"measurement": "ß-amyloid plaques in vivo", "setting": "[4]", "result": "reduce ß-amyloid plaques"},
      {"measurement": "latency distance and quadrant time in the Morris water maze", "setting": "APP/PS1 transgenic mice", "result": "improved"},
      {"measurement": "latency distance and quadrant time in the Morris water maze", "setting": "streptozotocin rats", "result": "improved"},
      {"measurement": "spatial memory", "setting": "triple transgenic mice", "result": "did not observe improvements in spatial memory"}
    ]}
  ]
}
